Measurements published in ChEMBL document CHEMBL5532698, “2,3-Dihydroquinazolin-4(1H)-ones and quinazolin-4(3H)-ones as broad-spectrum cytotoxic agents and their impact on tubulin polymerisation” (RSC Med Chem, 2024).

Experiments:
[1] = tested on: A-431; assay: Antiproliferative activity against human A-431 cells assessed as cell growth inhibition incubated for 72 hrs by MTT assay; assay type: functional
[2] = tested on: BE(2)-C; assay: Antiproliferative activity against human BE2C cells assessed as cell growth inhibition incubated for 72 hrs by MTT assay; assay type: functional
[3] = tested on: HT-29; assay: Antiproliferative activity against human HT-29 cells assessed as cell growth inhibition at 25 uM incubated for 72 hrs by MTT assay relative to control; assay type: functional
[4] = tested on: U-87 MG; assay: Antiproliferative activity against human U87 cells assessed as cell growth inhibition at 25 uM incubated for 72 hrs by MTT assay relative to control; assay type: functional, U-87MG ATCC
[5] = tested on: DU-145; assay: Antiproliferative activity against human DU-145 cells assessed as cell growth inhibition at 25 uM incubated for 72 hrs by MTT assay relative to control; assay type: functional
[6] = tested on: MCF7; assay: Antiproliferative activity against human MCF7 cells assessed as cell growth inhibition incubated for 72 hrs by MTT assay; assay type: functional
[7] = tested on: MIA PaCa-2; assay: Antiproliferative activity against human MIA PaCa-2 cells assessed as cell growth inhibition incubated for 72 hrs by MTT assay; assay type: functional
[8] = Cytotoxicity against human MCF-10A cells assessed as cell growth inhibition at 25 uM incubated for 72 hrs by MTT assay relative to control; assay type: toxicity, cell-based
[9] = Cytotoxicity against human MCF-10A cells assessed as cell growth inhibition incubated for 72 hrs by MTT assay; assay type: toxicity, cell-based
[10] = tested on: MCF7; assay: Antiproliferative activity against human MCF7 cells assessed as cell growth inhibition at 25 uM incubated for 72 hrs by MTT assay relative to control; assay type: functional
[11] = tested on: MIA PaCa-2; assay: Antiproliferative activity against human MIA PaCa-2 cells assessed as cell growth inhibition at 25 uM incubated for 72 hrs by MTT assay relative to control; assay type: functional
[12] = tested on: A-431; assay: Antiproliferative activity against human A-431 cells assessed as cell growth inhibition at 25 uM incubated for 72 hrs by MTT assay relative to control; assay type: functional
[13] = tested on: NCI-H460; assay: Antiproliferative activity against human NCI-H460 cells assessed as cell growth inhibition at 25 uM incubated for 72 hrs by MTT assay relative to control; assay type: functional
[14] = tested on: A2780; assay: Antiproliferative activity against human A2780 cells assessed as cell growth inhibition incubated for 72 hrs by MTT assay; assay type: functional
[15] = tested on: NCI-H460; assay: Antiproliferative activity against human NCI-H460 cells assessed as cell growth inhibition incubated for 72 hrs by MTT assay; assay type: functional
[16] = tested on: U-87 MG; assay: Antiproliferative activity against human U87 cells assessed as cell growth inhibition incubated for 72 hrs by MTT assay; assay type: functional, U-87MG ATCC
[17] = Antiproliferative activity against human SJG2 cells assessed as cell growth inhibition incubated for 72 hrs by MTT assay; assay type: functional; details: SJ-G2
[18] = tested on: DU-145; assay: Antiproliferative activity against human DU-145 cells assessed as cell growth inhibition incubated for 72 hrs by MTT assay; assay type: functional
[19] = tested on: BE(2)-C; assay: Antiproliferative activity against human BE2C cells assessed as cell growth inhibition at 25 uM incubated for 72 hrs by MTT assay relative to control; assay type: functional
[20] = tested on: A2780; assay: Antiproliferative activity against human A2780 cells assessed as cell growth inhibition at 25 uM incubated for 72 hrs by MTT assay relative to control; assay type: functional
[21] = tested on: HT-29; assay: Antiproliferative activity against human HT-29 cells assessed as cell growth inhibition incubated for 72 hrs by MTT assay; assay type: functional
[22] = Antiproliferative activity against human SJG2 cells assessed as cell growth inhibition at 25 uM incubated for 72 hrs by MTT assay relative to control; assay type: functional; details: SJ-G2

Compound	GI50 [1]	GI50 [6]	GI50 [7]	GI50 [14]	GI50 [15]	GI50 [16]	GI50 [18]	GI50 [2]	inhibition at 25 µM [3]	inhibition at 25 µM [4]	inhibition at 25 µM [5]	inhibition at 72 h, 25 µM [8]	GI50 at 72 h [9]	inhibition at 25 µM [10]	inhibition at 25 µM [11]	inhibition at 25 µM [12]	inhibition at 25 µM [13]	GI50 [17]	inhibition at 25 µM [19]	inhibition at 25 µM [20]	other results
O=c1[nH]c(/C=C/c2cccc(O)c2)nc2ccccc12	3 µM	1.3 µM	2.9 µM	3.1 µM	2.6 µM	8.9 µM	1.9 µM	1.8 µM	> 100%	73%	> 100%	97%	3.1 µM	> 100%	> 100%	> 100%	> 100%	2.5 µM	> 100%	> 100%	GI50 [21]: 5.9 µM; inhibition at 25 µM [22]: > 100%
O=c1[nH]c(-c2ccc(Br)cc2)nc2ccccc12	5.8 µM	3.8 µM	8.8 µM	3.9 µM	5.7 µM	10 µM	4.5 µM	6.4 µM	91%	91%	98%	91%	5.4 µM	99%	71%	88%	68%	4.3 µM	77%	83%	GI50 [21]: 5.2 µM; inhibition at 25 µM [22]: 66%
O=C1NC(C2CC=CCC2)Nc2ccccc21 (configuration not stated)	3.8 µM	15 µM	12 µM	3.9 µM	11 µM	17 µM	19 µM	5.7 µM	> 100%	67%	67%	89%	11 µM	72%	82%	> 100%	91%	17 µM	97%	99%	GI50 [21]: 5.4 µM; inhibition at 25 µM [22]: 87%

More lines, main results first:

GI50 [1]	GI50 [6]	GI50 [7]	GI50 [14]	GI50 [15]	GI50 [16]	GI50 [18]	Compound	GI50 [2]	inhibition at 25 µM [3]	inhibition at 25 µM [4]	inhibition at 25 µM [5]	inhibition at 72 h, 25 µM [8]	GI50 at 72 h [9]	inhibition at 25 µM [10]	inhibition at 25 µM [11]	inhibition at 25 µM [12]	inhibition at 25 µM [13]	GI50 [17]	inhibition at 25 µM [19]	inhibition at 25 µM [20]	other results
3.7 µM	13 µM	15 µM	3 µM	14 µM	19 µM	16 µM	O=C1NC(c2cccc(O)c2)Nc2ccccc21 (configuration not stated)	6.4 µM	> 100%	65%	72%	92%	14 µM	66%	86%	> 100%	94%	12 µM	97%	95%	GI50 [21]: 6.3 µM; inhibition at 25 µM [22]: > 100%
3.2 µM	12 µM	8.8 µM	3.2 µM	10 µM	16 µM	10 µM	O=C1NC(c2ccc(O)cc2)Nc2ccccc21 (configuration not stated)	4.1 µM	> 100%	72%	90%	91%	9.9 µM	55%	84%	108%	88%	8.9 µM	100%	95%	GI50 [21]: 3.7 µM; inhibition at 25 µM [22]: > 100%
2.7 µM	3.3 µM	3.5 µM	2.9 µM	3.1 µM	4.1 µM	4.8 µM	O=C1NC(c2cc3ccccc3o2)Nc2ccccc21 (configuration not stated)	3.1 µM	≥ 92%	47%	≥ 28%	76%	3.9 µM	63%	76%	≥ 75%	77%	3 µM	66%	≥ 57%	GI50 [21]: 2.6 µM; inhibition at 25 µM [22]: ≥ 71%
